Assay results: US9302967B2, “Substituted cathechols as inhibitors of IL-4 and IL-5 for the treatment of bronchial asthma” (Council of Scientific & Industrial Research, priority 2011, dated 2016)

Experiments:
IL-4 = experiment: PHA-stimulated human PBMC, IL-4 in supernatant by Cytometric Bead Array; assay type: cell-based; details: PHA 10 μg/ml, read-out: IC50 inhibitory activity, stimulation-induced IL-4
Description: (§1) Normal human peripheral blood mononuclear cells (PBMC) were stimulated with phytohemagglutinin (PHA) 10 μg/ml in the presence and absence of varying concentrations of compounds of formula I and II. Culture supernatants were harvested and IIL-4 and IL-5 cytokines were quantitated by Cytometric Bead Array (CBA™) kit (Becton Dickinson, USA) following manufacturers instructions using a Flow Cytometer (BD LSR, Becton Dickinson) and CBA™ analysis software (Becton Dickinson).

IL-5 = experiment: PHA-stimulated human PBMC, IL-5 in supernatant by Cytometric Bead Array; assay type: cell-based; details: Homo sapiens, PHA 10 μg/ml, read-out: IC50 inhibitory activity, stimulation-induced IL-5
Description: as §1

| IC50 (IL-4) | IC50 (IL-5) | melting point | SMILES |
| --- | --- | --- | --- |
| 4 µM | 4 µM |  | C=CCc1ccc(OC(C)=O)c(OC(C)=O)c1 [Compound 7, 4-allyl-1,2-phenylene diacetate] |
| 30 µM | 30 µM |  | C=CCc1cccc(O)c1O [Compound 16, 3-allyl-benzene-1,2-diol] |
| 30 µM | 35 µM | 58 to 60 °C | C=CCc1cccc(OC(C)=O)c1OC(C)=O [Compound 19, 3-allyl-1,2-phenylene diacetate] |
